Consider 14 molecules from US20240279240A1, “HETEROCYCLIC DERIVATIVES AS JANUS KINASE INHIBITORS” (CHIESI FARMACEUTICI S.P.A., priority 2021, published 2024).

The target in one test is JAK 1 (Homo sapiens, UniProt P23458). In words: Biochemical potency on JAK1, TR-FRET LANCE Ultra kinase assay (examples 1-99). The following applies: ATP at Km (20 μM), read-out: JAK1 inhibitory activity (pIC50 class) (converted). Here is the method: (§1) The objective of this study was to assess the capability of compounds to inhibit all 4 JAK isoforms activity in a cell-free environment. Assay for JAK 1, JAK 2, JAK 3 and TYK2 were performed by Time-resolved fluorescence resonance energy transfer (TR-FRET) technology. It consists in the interaction of two labelled binding partners detected by the energy transfer from an excited donor to an acceptor dye and measurement of light emission by the acceptor dye. LANCE Ultra kinase assay was used. In presence of JAK 1, JAK 2, JAK 3 and TYK2 kinases and ATP (corresponding to Km), the ULight peptide substrate (LANCE Ulight-JAK-1 (Tyr1023) Peptide, Perkin Elmer, TRF0121) is phosphorylated. It is then captured by Eu-anti-phospho-substrate antibody (LANCE Eu-W1024 Anti-phosphotyrosine (PT66), Perkin Elmer, AD0069), which bring the Eu-chelate donor and ULight acceptor dyes into close proximity. Upon excitation at 320 nm, the Eu-chelate transfers its energy to the ULight dye, resulting in a fluorescent light emission at 665 nm.
JAK 1, sequence (P23458 whole entry, canonical isoform): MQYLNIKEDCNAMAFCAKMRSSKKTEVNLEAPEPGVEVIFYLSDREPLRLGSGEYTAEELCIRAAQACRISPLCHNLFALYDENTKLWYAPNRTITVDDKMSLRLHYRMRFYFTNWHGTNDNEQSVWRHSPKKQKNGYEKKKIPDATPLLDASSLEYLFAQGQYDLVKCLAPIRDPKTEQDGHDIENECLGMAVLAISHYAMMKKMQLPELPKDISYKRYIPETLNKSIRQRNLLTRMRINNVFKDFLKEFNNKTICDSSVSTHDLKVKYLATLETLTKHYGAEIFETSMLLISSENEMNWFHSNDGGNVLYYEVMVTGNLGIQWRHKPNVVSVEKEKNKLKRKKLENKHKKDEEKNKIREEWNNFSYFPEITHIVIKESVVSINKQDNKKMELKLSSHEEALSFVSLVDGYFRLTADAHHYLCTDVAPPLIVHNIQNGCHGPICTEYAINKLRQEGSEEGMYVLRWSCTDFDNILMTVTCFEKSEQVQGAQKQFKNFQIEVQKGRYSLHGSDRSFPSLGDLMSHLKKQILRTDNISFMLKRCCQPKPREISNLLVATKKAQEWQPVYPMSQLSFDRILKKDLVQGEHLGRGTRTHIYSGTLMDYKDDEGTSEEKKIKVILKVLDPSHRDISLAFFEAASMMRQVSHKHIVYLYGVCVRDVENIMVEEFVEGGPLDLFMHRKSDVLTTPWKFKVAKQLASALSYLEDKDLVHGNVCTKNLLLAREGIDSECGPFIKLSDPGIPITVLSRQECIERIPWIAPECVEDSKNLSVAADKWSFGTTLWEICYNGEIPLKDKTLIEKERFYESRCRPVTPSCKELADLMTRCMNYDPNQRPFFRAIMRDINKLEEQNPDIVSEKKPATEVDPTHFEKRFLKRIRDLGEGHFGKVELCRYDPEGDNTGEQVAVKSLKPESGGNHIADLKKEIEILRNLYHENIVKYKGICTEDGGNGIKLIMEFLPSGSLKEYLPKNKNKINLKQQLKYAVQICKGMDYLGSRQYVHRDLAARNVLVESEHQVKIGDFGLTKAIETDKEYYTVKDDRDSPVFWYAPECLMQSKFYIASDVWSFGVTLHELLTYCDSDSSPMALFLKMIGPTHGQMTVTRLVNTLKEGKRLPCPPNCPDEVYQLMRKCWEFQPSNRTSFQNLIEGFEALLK
(§2) Serial dilutions of compounds in pure DMSO are prepared from 10 mM DMSO stock solutions. Compounds were tested in 384-well plate for 11 consecutive 5-fold dilutions starting from 20 μM highest concentration (20 μM-[…]). 200 nL of compound were transferred from mother plate to test plate by using Mosquito (TTP labtech). Assay was performed in 384-well Perkin Elmer test plate in 20 μL assay volume (kinase reaction) and 40 μL total volume (stopping reagent and antibody detection reagents). In 10 μL of substrate solution (peptide+ATP) 30/50/20/10 nM of peptide and 20/0.7/0.2/12 μM of ATP were added for JAK 1, JAK 2, JAK 3 and TYK2 respectively. 10 μL of enzyme solution was added to kinase reaction at these concentrations: 0.15/0.083/0.025/0.144 ng/μL of JAK 1, JAK 2, JAK 3 and TYK2 respectively. After shaking and 1.5 h of incubation at r.t., 20 μL of Stop (10 μL EDTA) and Detection mixture (10 μL Europium-anti-phospho antibody, final: 0.5 nM) were added. Reading was performed after 1 h of incubation on a EnVision 2104 reader (Perkin Elmer).
(§3) Calculation of IC50 data, curves and QC analysis was performed by using Excel tool and GraphPadPrism software, v9. Briefly, individual concentration-effect curves are generated by plotting the logarithm of the tested concentration of tested compounds (X) vs. corresponding percent inhibition values (Y) using least squares (ordinary) fit. Best fit IC50 values are calculated using Log(inhibitor) vs. normalized response—Variable slope equation, where Y=100/(1+10^((Log IC50−X)*HillSlope)). QC criteria parameters (Z′, S:B, R2, HillSlope) were checked for every IC50 curve. Calculation of IC50 data, curves and QC analysis were made using Excel tools and GraphPadPrism software. QC criteria parameters: Z′≥0.5, Hill Slope range 0.5 to 5, S:B>2.

The target in the next test is JAK 2 (Homo sapiens, UniProt O60674). In words: Biochemical potency on JAK2, TR-FRET LANCE Ultra kinase assay (examples 1-99). The following applies: ATP at Km (0.7 μM), read-out: JAK2 inhibitory activity (pIC50 class) (converted). Here is the method:
as §1, §2, §3
Background: In TR-FRET formats the signal depends on donor and acceptor labels being close together.

The target of another test is T1, JAK 3 (Homo sapiens, UniProt P52333).
T1 sequence (P52333 1-1124): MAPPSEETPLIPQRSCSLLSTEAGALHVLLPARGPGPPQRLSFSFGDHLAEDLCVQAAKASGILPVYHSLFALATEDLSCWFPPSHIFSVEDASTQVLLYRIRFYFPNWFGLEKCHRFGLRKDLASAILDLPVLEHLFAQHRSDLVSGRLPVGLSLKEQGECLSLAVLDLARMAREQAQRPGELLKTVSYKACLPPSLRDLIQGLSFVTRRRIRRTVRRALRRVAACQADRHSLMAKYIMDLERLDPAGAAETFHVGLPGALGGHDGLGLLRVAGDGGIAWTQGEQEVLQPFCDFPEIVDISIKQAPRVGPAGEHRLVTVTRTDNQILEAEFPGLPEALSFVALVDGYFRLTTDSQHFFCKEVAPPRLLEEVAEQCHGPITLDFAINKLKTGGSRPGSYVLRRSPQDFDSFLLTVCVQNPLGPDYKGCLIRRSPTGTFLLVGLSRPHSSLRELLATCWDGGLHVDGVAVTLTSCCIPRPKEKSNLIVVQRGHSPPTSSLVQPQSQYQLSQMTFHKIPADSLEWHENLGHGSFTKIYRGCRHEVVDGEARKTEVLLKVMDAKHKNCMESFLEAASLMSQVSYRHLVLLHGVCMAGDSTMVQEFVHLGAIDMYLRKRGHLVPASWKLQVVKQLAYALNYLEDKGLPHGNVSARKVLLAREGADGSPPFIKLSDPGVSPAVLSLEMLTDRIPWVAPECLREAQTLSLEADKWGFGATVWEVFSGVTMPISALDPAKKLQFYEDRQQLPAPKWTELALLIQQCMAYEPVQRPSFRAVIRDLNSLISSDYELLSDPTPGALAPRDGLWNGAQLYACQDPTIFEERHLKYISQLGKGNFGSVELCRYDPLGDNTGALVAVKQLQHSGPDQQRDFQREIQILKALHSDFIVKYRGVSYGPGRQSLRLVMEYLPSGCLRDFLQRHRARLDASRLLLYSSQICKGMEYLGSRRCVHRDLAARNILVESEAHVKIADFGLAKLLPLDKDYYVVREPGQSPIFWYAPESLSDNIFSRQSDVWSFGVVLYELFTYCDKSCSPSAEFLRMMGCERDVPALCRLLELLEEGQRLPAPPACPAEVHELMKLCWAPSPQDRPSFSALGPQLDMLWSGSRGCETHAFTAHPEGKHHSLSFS
Briefly: Biochemical potency on JAK3, TR-FRET LANCE Ultra kinase assay (examples 1-99). The following applies: ATP at Km (0.2 μM), read-out: JAK3 inhibitory activity (pIC50 class) (converted). Here is the method: as §1, §2, §3

The next test has as its target TYK2 (Homo sapiens, UniProt P29597). In words: Biochemical potency on Tyk2, TR-FRET LANCE Ultra kinase assay (examples 1-99). The note with it: ATP at Km (12 μM), read-out: Tyk2 inhibitory activity (pIC50 class) (converted). The procedure:
as §1, §2, §3

JAK 2, sequence (O60674 whole entry): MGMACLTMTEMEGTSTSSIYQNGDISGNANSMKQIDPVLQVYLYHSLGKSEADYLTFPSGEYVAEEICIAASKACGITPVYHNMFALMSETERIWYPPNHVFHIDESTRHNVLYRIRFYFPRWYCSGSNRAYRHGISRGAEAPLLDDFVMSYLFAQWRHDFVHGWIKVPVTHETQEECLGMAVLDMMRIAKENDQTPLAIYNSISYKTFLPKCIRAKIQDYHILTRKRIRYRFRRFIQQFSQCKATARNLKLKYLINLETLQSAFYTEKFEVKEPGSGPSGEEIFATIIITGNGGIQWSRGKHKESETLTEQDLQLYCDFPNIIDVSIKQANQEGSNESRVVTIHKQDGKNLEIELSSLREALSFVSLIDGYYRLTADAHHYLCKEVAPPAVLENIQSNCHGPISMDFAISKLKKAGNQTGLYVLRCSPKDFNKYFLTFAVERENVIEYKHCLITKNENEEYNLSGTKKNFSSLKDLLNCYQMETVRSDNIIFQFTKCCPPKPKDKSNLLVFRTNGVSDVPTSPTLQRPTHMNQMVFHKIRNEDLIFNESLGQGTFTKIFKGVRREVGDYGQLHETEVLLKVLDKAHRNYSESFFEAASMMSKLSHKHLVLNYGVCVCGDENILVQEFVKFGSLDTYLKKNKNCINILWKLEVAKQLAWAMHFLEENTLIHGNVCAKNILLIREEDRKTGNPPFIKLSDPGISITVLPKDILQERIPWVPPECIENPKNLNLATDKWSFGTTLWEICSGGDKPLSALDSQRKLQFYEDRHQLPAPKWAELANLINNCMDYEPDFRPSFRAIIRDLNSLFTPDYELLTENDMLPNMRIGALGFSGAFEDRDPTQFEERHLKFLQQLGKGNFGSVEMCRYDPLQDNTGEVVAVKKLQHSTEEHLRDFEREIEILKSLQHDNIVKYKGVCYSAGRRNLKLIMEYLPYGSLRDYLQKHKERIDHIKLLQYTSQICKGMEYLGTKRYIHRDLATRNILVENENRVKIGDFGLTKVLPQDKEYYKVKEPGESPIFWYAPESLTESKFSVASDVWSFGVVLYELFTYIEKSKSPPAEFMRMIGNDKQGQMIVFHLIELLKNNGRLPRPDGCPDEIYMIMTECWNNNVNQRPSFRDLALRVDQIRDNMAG
TYK2, sequence (P29597 whole entry): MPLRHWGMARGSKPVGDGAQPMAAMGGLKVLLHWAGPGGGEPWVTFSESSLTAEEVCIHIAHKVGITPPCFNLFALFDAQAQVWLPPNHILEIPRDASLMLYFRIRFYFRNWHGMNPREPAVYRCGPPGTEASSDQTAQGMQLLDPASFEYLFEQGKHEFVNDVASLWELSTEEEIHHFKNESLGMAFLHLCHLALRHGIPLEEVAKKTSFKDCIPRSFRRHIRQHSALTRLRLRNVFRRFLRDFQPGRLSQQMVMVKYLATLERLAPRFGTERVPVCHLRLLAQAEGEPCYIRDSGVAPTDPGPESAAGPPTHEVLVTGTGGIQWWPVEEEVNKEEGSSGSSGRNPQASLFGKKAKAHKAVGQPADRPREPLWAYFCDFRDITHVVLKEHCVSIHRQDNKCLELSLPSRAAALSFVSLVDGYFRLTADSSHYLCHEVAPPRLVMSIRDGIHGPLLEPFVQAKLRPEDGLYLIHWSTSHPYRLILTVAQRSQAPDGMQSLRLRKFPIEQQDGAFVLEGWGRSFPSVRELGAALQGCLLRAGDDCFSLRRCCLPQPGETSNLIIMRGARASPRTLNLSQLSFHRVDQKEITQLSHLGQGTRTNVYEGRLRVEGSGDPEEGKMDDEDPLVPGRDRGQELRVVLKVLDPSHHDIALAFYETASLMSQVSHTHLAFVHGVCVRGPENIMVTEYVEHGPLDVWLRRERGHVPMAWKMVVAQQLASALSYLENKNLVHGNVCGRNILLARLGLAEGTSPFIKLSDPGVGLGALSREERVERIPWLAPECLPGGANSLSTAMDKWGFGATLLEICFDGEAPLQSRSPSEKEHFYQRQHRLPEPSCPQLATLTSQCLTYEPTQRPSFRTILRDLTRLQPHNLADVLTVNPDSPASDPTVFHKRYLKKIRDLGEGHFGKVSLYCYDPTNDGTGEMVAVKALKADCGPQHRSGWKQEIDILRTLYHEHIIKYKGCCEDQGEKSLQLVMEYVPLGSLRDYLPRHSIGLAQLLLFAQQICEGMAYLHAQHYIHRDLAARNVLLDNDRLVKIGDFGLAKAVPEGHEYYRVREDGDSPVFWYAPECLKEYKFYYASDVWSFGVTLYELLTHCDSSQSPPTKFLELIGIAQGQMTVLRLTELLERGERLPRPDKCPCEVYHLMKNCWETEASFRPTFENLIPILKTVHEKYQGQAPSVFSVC

Consider `COc1ccc(F)cc1-n1nc(C)c2cnc(-c3cnn4cccnc34)cc21` [Example 1, 1-(5-fluoro-2-methoxyphenyl)-3-methyl-6-(pyrazolo[1,5-a]pyrimidin-3-yl)-1H-pyrazolo[4,3-c]pyridine], for which the IC50 is 5.01 to 50.1 nM at JAK 1, at most 5.01 nM at JAK 2, 5.01 to 50.1 nM on JAK 3 and 5.01 to 50.1 nM at TYK2.

As for `COc1ccc(Cl)cc1-n1nc(C)c2cnc(-c3cnn4cccnc34)cc21` [Example 2, 1-(5-chloro-2-methoxyphenyl)-3-methyl-6-(pyrazolo[1,5-a]pyrimidin-3-yl)-1H-pyrazolo[4,3-c]pyridine], the IC50 at JAK 1 was at most 5.01 nM; on JAK 2, at most 5.01 nM; on JAK 3, 5.01 to 50.1 nM; at TYK2, 5.01 to 50.1 nM.

Take `COc1ccc(C(F)F)cc1-n1nc(C)c2cnc(-c3cnn4cccnc34)cc21` [Example 3, 1-(5-(difluoromethyl)-2-methoxyphenyl)-3-methyl-6-(pyrazolo[1,5-a]pyrimidin-3-yl)-1H-pyrazolo[4,3-c]pyridine]: the IC50 at JAK 1 was 5.01 to 50.1 nM; on JAK 2, at most 5.01 nM; at JAK 3 it was 5.01 to 50.1 nM; on TYK2 it was 5.01 to 50.1 nM.

Take `COc1ccc(C(F)(F)F)cc1-n1nc(C)c2cnc(-c3cnn4cccnc34)cc21` [Example 4, 1-(2-methoxy-5-(trifluoromethyl)phenyl)-3-methyl-6-(pyrazolo[1,5-a]pyrimidin-3-yl)-1H-pyrazolo[4,3-c]pyridine]: the IC50 at JAK 1 is 5.01 to 50.1 nM; on JAK 2 it was at most 5.01 nM; at JAK 3 it was 5.01 to 50.1 nM; on TYK2, over 50.1 nM.

For `CSc1ccc(Cl)cc1-n1nc(C)c2cnc(-c3cnn4cccnc34)cc21` [Example 5, 1-(5-chloro-2-(methylthio)phenyl)-3-methyl-6-(pyrazolo[1,5-a]pyrimidin-3-yl)-1H-pyrazolo[4,3-c]pyridine], the IC50 at JAK 1 is 5.01 to 50.1 nM; on JAK 2 it was at most 5.01 nM; on JAK 3, 5.01 to 50.1 nM; on TYK2, 5.01 to 50.1 nM.

For the molecule `Cc1nn(-c2cc(Cl)ccc2SC(F)F)c2cc(-c3cnn4cccnc34)ncc12` [Example 6, 1-(5-chloro-2-((difluoromethyl)thio)phenyl)-3-methyl-6-(pyrazolo[1,5-a]pyrimidin-3-yl)-1H-pyrazolo[4,3-c]pyridine], the IC50 at JAK 1 was 5.01 to 50.1 nM; on JAK 2, 5.01 to 50.1 nM; at JAK 3 it was at most 5.01 nM; at TYK2, 5.01 to 50.1 nM.

Take `Cc1nn(-c2cc(Cl)ccc2OC2CC2)c2cc(-c3cnn4cccnc34)ncc12` [Example 7, 1-(5-chloro-2-cyclopropoxyphenyl)-3-methyl-6-(pyrazolo[1,5-a]pyrimidin-3-yl)-1H-pyrazolo[4,3-c]pyridine]: the IC50 at JAK 1 was 5.01 to 50.1 nM; on JAK 2, at most 5.01 nM; at JAK 3, at most 5.01 nM; at TYK2, 5.01 to 50.1 nM.

As to `COc1ccc(OC)c(-n2nc(C)c3cnc(-c4cnn5cccnc45)cc32)c1` [Example 8, 1-(2,5-dimethoxyphenyl)-3-methyl-6-(pyrazolo[1,5-a]pyrimidin-3-yl)-1H-pyrazolo[4,3-c]pyridine], the IC50 on JAK 1 is 5.01 to 50.1 nM; on JAK 2, at most 5.01 nM; at JAK 3 it was 5.01 to 50.1 nM; on TYK2 it was over 50.1 nM.

As to `COc1ccc(S(=O)(=O)CCCO)cc1-n1nc(C)c2cnc(-c3cnn4cccnc34)cc21` [Example 9, 3-((4-methoxy-3-(3-methyl-6-(pyrazolo[1,5-a]pyrimidin-3-yl)-1H-pyrazolo[4,3-c]pyridin-1-yl)phenyl)sulfonyl)propan-1-ol], the IC50 is 5.01 to 50.1 nM at JAK 1, at most 5.01 nM on JAK 2, 5.01 to 50.1 nM at JAK 3 and over 50.1 nM on TYK2.

On to `CCCS(=O)(=O)c1ccc(OC)c(-n2nc(C)c3cnc(-c4cnn5cccnc45)cc32)c1` [Example 10, 1-(2-methoxy-5-(propylsulfonyl)phenyl)-3-methyl-6-(pyrazolo[1,5-a]pyrimidin-3-yl)-1H-pyrazolo[4,3-c]pyridine], for which the IC50 on JAK 1 was 5.01 to 50.1 nM; on JAK 2 it was 5.01 to 50.1 nM; on JAK 3, at most 5.01 nM; at TYK2, over 50.1 nM.

For the molecule `Cc1nn(-c2cc(Cl)ccc2OC(F)F)c2cc(-c3cnn4cccnc34)ncc12` [Example 11, 1-(5-chloro-2-(difluoromethoxy)phenyl)-3-methyl-6-(pyrazolo[1,5-a]pyrimidin-3-yl)-1H-pyrazolo[4,3-c]pyridine], the IC50 was at most 5.01 nM on JAK 1, at most 5.01 nM on JAK 2, at most 5.01 nM on JAK 3 and 5.01 to 50.1 nM at TYK2.

`Cc1nn(-c2cc(Cl)ccc2O)c2cc(-c3cnn4cccnc34)ncc12` [Example 12, 4-chloro-2-(3-methyl-6-(pyrazolo[1,5-a]pyrimidin-3-yl)-1H-pyrazolo[4,3-c]pyridin-1-yl)phenol]: the IC50 on JAK 1 was 5.01 to 50.1 nM; on JAK 2, at most 5.01 nM; at JAK 3 it was 5.01 to 50.1 nM; on TYK2 it was 5.01 to 50.1 nM.

As to `CSc1ccc(OC(F)F)c(-n2nc(C)c3cnc(-c4cnn5cccnc45)cc32)c1` [Example 13, 1-(2-(difluoromethoxy)-5-(methylthio)phenyl)-3-methyl-6-(pyrazolo[1,5-a]pyrimidin-3-yl)-1H-pyrazolo[4,3-c]pyridine], the IC50 was at most 5.01 nM at JAK 1, at most 5.01 nM on JAK 2, at most 5.01 nM at JAK 3 and 5.01 to 50.1 nM at TYK2.

With `CNS(=O)(=O)c1ccc(OC)c(-n2nc(C)c3cnc(-c4cnn5cccnc45)cc32)c1` [Example 14, 4-methoxy-N-methyl-3-(3-methyl-6-(pyrazolo[1,5-a]pyrimidin-3-yl)-1H-pyrazolo[4,3-c]pyridin-1-yl)benzenesulfonamide], the IC50 is 5.01 to 50.1 nM on JAK 1, at most 5.01 nM at JAK 2, at most 5.01 nM at JAK 3 and 5.01 to 50.1 nM on TYK2.
